Read-outs that look alike come from different tables or passages of the source.
Target: T1, GRK2 (Homo sapiens, UniProt P25098)
T1 construct: purchased SignalChem A14-10G
T1 sequence (P25098 1-689): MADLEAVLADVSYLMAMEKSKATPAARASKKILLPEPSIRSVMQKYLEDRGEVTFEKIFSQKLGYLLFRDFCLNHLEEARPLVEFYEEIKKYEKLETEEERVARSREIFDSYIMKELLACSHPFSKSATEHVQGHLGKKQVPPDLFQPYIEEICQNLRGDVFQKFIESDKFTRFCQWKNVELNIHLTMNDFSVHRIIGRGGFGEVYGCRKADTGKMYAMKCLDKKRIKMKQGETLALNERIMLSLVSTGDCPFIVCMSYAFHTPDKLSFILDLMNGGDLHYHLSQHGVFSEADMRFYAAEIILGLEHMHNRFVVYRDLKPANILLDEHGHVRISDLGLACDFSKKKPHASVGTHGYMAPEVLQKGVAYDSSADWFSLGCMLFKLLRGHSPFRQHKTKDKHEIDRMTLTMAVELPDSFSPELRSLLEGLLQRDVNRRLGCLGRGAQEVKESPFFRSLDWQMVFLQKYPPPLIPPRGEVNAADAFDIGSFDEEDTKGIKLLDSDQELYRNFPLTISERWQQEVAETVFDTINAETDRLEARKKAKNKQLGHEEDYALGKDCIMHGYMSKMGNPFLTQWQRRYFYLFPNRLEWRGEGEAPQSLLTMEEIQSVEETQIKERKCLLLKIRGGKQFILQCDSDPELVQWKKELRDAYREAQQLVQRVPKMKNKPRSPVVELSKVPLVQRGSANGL
Assay: ADPGlo GRK2 Inhibition Assay (Example 8)
Type: biochemical
Description: HTS was performed using 1 μM compound.
Compounds were dissolved in 100% DMSO, serially diluted tree-fold from 100 μM concentration to 46 nM and transferred (50 nL) into assay ready plate.
Materials: GRK2 was purchased from SignalChem (Cat #A14-10G, Lot #X^645-3). Substrate GRKtide was from SignalChem (Cat #G46-58, Lot #R339-6). ADP-Glo Kinase Assay from Promega (Cat #V9102). Assay buffer consisted of 25 mMv HEPES (pH7.5), 10 mMv MgCl2, 0.01% Tween-20, 1 mM DDT. 384-well white plates were from Greiner […] (Item #784075).
HTS protocol: Take 384 well plate with 50 nL of compound in columns 3-22/DMSO solution 1-2,23-24. Add 2.5 μL assay buffer to columns 23 and 24 using Thermo Scientific Multidrop Combi Dispenser. Add 2.5 μL of 2× enzyme solution (15 nM in 1× assay buffer) using Thermo Scientific Multidrop Combi Reagent Dispenser to all columns except of 23 and 24. Incubate for 15 minutes. Fill plate with 2.5 μL of 2× substrate mix (20 μM ATP and 0.6 mg/nt GRKtide in Ix assay buffer) using Thermo Scientific Multidrop Combi Reagent Dispenser. Spin 15 seconds at 1000 rpm and incubate for 180 min at room temperature. Add 5 μL ADP-Glo reagent to all the wells. Spin 15 seconds at 1000 rpm and incubate for 40 min at room temperature. Add 10 μL Detection solution to all the wells. Incubate for 30 min at room temperature. Read plate in Luminescent modeon BMG PheraStar FSX (gain=3600).
Data Analysis: Data were analyzed in GraphPad Prism 8.0.2. Each HTS plate contains compounds in columns 3-22, controls (enzyme, no compound) in columns 1 and 2, and blanks (no enzyme) in columns 23 and 24. HTS percent inhibition was calculated for each compound from the signal in luminescence units and the mean of the plate controls and the mean of the plate blanks using the following equation: % Inhibition=100*(1−((signal-blank mean)/(control mean-blank mean))). At the final stage of data processing, we obtain dose-response curves, tables and SDF-files with the results of screening for each substance.

[1] = ADPGlo GRK2 enzyme assay, read-out: A: Enzymatic GRK2: IC50 (nM) (Example 8)
[2] = Enzyme Assay A, ADPGlo (Example 8), read-out: A: Enzymatic GRK2: IC50 (nM) (Example 8)
[3] = 7.5 nM GRK2, 10 μM ATP, ADP-Glo, read-out: GRK2 IC50 (nM) (Example 8)

Structure (SMILES) | IC50 [1] [nM] | other results
CCCCCOc1ccc2c(c1)[C@H](NC(=O)c1cccc(NCc3nnc(-c4ccncn4)n3C)c1)CCO2 | 732 | –
Cc1csc(CNC(=O)c2cccc(NCc3nnc(-c4ccncn4)n3C)c2)n1 [drawing 283] | – | IC50 [2]: 100 nM
Cn1c(CNc2cccc(C(=O)NCc3ccncc3Cl)c2)nnc1-c1ccncc1F | 31.9 | –
COc1ccc([C@H](C)NC(=O)c2cccc(NCc3nnc(-c4ccncn4)n3C)c2)cc1 | 593 | –
Cn1c(CNc2cccc(C(=O)NCc3ccc4c(c3)CCN4)c2)nnc1-c1ccncn1 [compound 57] | – | IC50 [3]: 9.4 nM
Cn1c(CNc2cccc(C(=O)NC(c3ccccc3)C(C)(C)CO)c2)nnc1-c1ccncn1 (stereo not drawn) | – | IC50 [2]: 880 nM
Cc1cccnc1CNC(=O)c1cccc(NCc2nnc(-c3ccncc3F)n2C)c1 | 312 | –
Cn1c(CNc2cccc(C(=O)NCc3ccncc3Cl)c2)nnc1-c1ccncn1 [compound 13] | – | IC50 [3]: 9.1 nM
COC1COc2ccccc2C1NC(=O)c1cccc(NCc2nnc(-c3ccncn3)n2C)c1 (stereo not drawn) | 59.1 | –
CCCCCOc1ccc2c(c1)[C@H](NC(=O)c1cccc(NCc3nnc(-c4ccncn4)n3C)c1)CO2 | 550 | –
Cn1c(CNc2cccc(C(=O)NCc3ccc(F)cc3F)c2)nnc1-c1ccncn1 | – | IC50 [2]: 15 nM
Cn1c(CNc2cccc(C(=O)NC3CCn4nccc4C3)c2)nnc1-c1ccncn1 (stereo not drawn) | 133 | –
COc1cccc(C(CO)NC(=O)c2cccc(NCc3nnc(-c4ccncn4)n3C)c2)c1 (stereo not drawn) [compound 49] | – | IC50 [3]: 5.4 nM
Cn1c(CNc2cccc(C(=O)N[C@@H]3COc4cc(F)ccc43)c2)nnc1-c1ccncc1 | – | IC50 [2]: 143 nM
Cn1c(CNc2cccc(C(=O)NCc3ncc(Cl)cn3)c2)nnc1-c1ccncn1 | – | IC50 [2]: 240 nM
Cn1c(CNc2cccc(C(=O)NCc3cnn(-c4ccccc4)n3)c2)nnc1-c1ccncn1 [compound 55] | – | IC50 [3]: 6.5 nM
COc1ccc2c(c1)[C@@H](NC(=O)c1cccc(NCc3nnc(-c4ccncn4)n3C)c1)CCO2 | – | IC50 [2]: > 1000 nM
O=C(NCc1ccccn1)c1cccc(NCc2nnc(-c3ccncc3)[nH]2)c1 | – | IC50 [2]: 36 nM
CCS(=O)(=O)c1ccc(CNC(=O)c2cccc(NCc3nnc(-c4ccncn4)n3C)c2)nc1 | – | IC50 [2]: 100 nM
Cn1c(CNc2cccc(C(=O)NCc3ccc4nccn4c3)c2)nnc1-c1ccncn1 [compound 40] | – | IC50 [3]: 1.7 nM
Cn1c(CNc2cccc(C(=O)NC(CO)c3ccccc3F)c2)nnc1-c1ccncn1 (stereo not drawn) | – | IC50 [2]: 60 nM
Cn1c(CNc2cccc(C(=O)NC3(CO)CCc4ccccc43)c2)cnc1-c1ccncn1 (stereo not drawn) | 929 | –
Cn1c(CNc2cccc(C(=O)NC3(c4ncccc4F)CC3)c2)nnc1-c1ccncn1 | 104 | –
Cn1c(CNc2cccc(C(=O)NC3CCCc4[nH]c(=O)ccc43)c2)nnc1-c1ccncn1 (stereo not drawn) | 392 | –
Cn1c(CNc2cccc(C(=O)NCc3cc(F)ccc3F)c2)nnc1-c1ccncn1 | – | IC50 [2]: 27 nM

Structure (SMILES) | IC50 [1] [nM] | other results
C[C@@H](NC(=O)c1cccc(NCc2nnc(-c3ccncc3)n2CCO)c1)c1ncccc1Cl | 11.9 | –
Cc1ccc2ncc(CNC(=O)c3cccc(NCc4nnc(-c5ccncn5)n4C)c3)n2c1 [compound 44] | – | IC50 [3]: 2.8 nM
Cc1cccc([C@H](C)NC(=O)c2cccc(NCc3nnc(-c4ccncn4)n3C)c2)n1 | – | IC50 [2]: 95 nM
CCS(=O)(=O)c1ccc(CNC(=O)c2cccc(NCc3nnc(-c4ccncn4)n3C)c2)cc1 [compound 53] | – | IC50 [3]: 6.2 nM
Cn1c(CNc2cccc(C(=O)N[C@]3(c4ccccc4F)C[C@H](O)C3)c2)nnc1-c1ccncn1 | 423 | –
Cn1c(CNc2cccc(C(=O)NC3CCCc4c3ccc(=O)n4C)c2)nnc1-c1ccncn1 (stereo not drawn) | > 1000 | –
Cn1cccc1CNC(=O)c1cccc(NCc2nnc(-c3ccncn3)n2C)c1 [compound 59] | – | IC50 [3]: 9.5 nM
Cn1c(CNc2cccc(C(=O)NCc3cccc4cccnc34)c2)nnc1-c1ccncn1 [compound 24] | – | IC50 [3]: 61 nM
Cn1c(CNc2cccc(C(=O)N[C@H]3COCc4ccccc43)c2)nnc1-c1ccncc1 | – | IC50 [2]: 100 nM
Cn1c(CNc2cccc(C(=O)NC3c4ccccc4CC3O)c2)nnc1-c1ccncn1 (stereo not drawn) [compound 56] | – | IC50 [3]: 7.3 nM
COc1ccccc1[C@@H](NC(=O)c1cccc(NCc2nnc(-c3ccncn3)n2C)c1)c1noc(C)n1 | 333 | –
Cc1cnc(CCNC(=O)c2cccc(NCc3nnc(-c4ccncn4)n3C)c2)c(C)c1 | 432 | –
Cc1cnc(CNC(=O)c2cccc(NCc3nnc(-c4ccncn4)n3C)c2)cn1 | – | IC50 [2]: 150 nM
Cc1nc(CNC(=O)c2cccc(NCc3nnc(-c4ccncn4)n3C)c2)cs1 [compound 61] | – | IC50 [3]: 9.8 nM
Cn1c(CNc2cccc(C(=O)NCc3ccc(-n4ccnn4)cc3)c2)nnc1-c1ccncn1 [compound 58] | – | IC50 [3]: 9.5 nM
Cn1c(CNc2cccc(C(=O)NC3CCCOc4ccccc43)c2)nnc1-c1ccncn1 (stereo not drawn) | – | IC50 [2]: 92 nM
CC(O)C(NC(=O)c1cccc(NCc2nnc(-c3ccncn3)n2C)c1)c1ccccc1F (stereo not drawn) | 209 | –
Cn1c(CNc2cccc(C(=O)NCc3c4c(n[nH]c3=O)CCCC4)c2)nnc1-c1ccncn1 | 531 | –
Cn1c(CNc2cc(C(=O)N[C@@H]3COc4cc(F)ccc43)ccn2)nnc1-c1ccncn1 | 37.5 | –
COc1cccc2c1CCC2(CO)NC(=O)c1cccc(NCc2cnc(-c3ccncn3)n2C)c1 (stereo not drawn) | 134 | –
Cn1c(CNc2cccc(C(=O)N[C@@H]3COCc4ccccc43)c2)nnc1-c1ccncn1 [compound 31] | – | IC50 [3]: 22 nM
COc1cccc(C(C)NC(=O)c2cccc(NCc3nnc(-c4ccncn4)n3C)c2)c1 (stereo not drawn) [compound 48] | – | IC50 [3]: 4.4 nM
Cn1c(CNc2cccc(C(=O)NC3CCCn4nccc43)c2)nnc1-c1ccncn1 (stereo not drawn) | 171 | –
CC(NC(=O)c1cccc(NCc2nnc(-c3ccncn3)n2C)c1)c1c[nH]cn1 (stereo not drawn) [compound 52] | – | IC50 [3]: 5.7 nM

Second part, led by results:

IC50 [1] [nM] | Structure (SMILES) | other results
382 | Cc1ncc(CNC(=O)c2cccc(NCc3nnc(-c4ccncn4)n3C)c2)c(O)n1 | –
208 | Cn1c(CNc2cccc(C(=O)NCC3Cc4ccccc4O3)c2)nnc1-c1ccncn1 (stereo not drawn) | –
104 | Cn1c(CNc2cccc(C(=O)NCc3cc(F)ccc3N3CCOCC3)c2)nnc1-c1ccncn1 | –
50.5 | Cn1c(CNc2cccc(C(=O)NCc3ccccc3S(=O)(=O)N3CCCCC3)c2)nnc1-c1ccncn1 | –
184 | CN1CCN(c2ccccc2CNC(=O)c2cccc(NCc3nnc(-c4ccncn4)n3C)c2)CC1 | –
142 | Cn1c(CNc2cccc(C(=O)NC3CNCCc4ccccc43)c2)nnc1-c1ccncn1 (stereo not drawn) | –
> 1000 | Cn1c(CNc2cccc(C(=O)NCc3cc4n(n3)CCC4)c2)nnc1-c1ccncn1 | –
182 | Cc1ccc(CNC(=O)c2cccc(NCc3nnc(-c4ccncn4)n3C)c2)nc1C | –
184 | Cn1c(CNc2cccc(C(=O)NCc3ccccc3-n3cccn3)c2)nnc1-c1ccncn1 | –
119 | Cn1c(CNc2cccc(C(=O)NCc3cccnc3-n3cncn3)c2)nnc1-c1ccncn1 | –
344 | CN1CCN(S(=O)(=O)c2ccccc2CNC(=O)c2cccc(NCc3nnc(-c4ccncn4)n3C)c2)CC1 | –
> 1000 | Cc1c[nH]c(=O)c(CNC(=O)c2cccc(NCc3nnc(-c4ccncn4)n3C)c2)c1 | –
412 | Cc1ccc(CNC(=O)c2cccc(NCc3nnc(-c4ccncn4)n3C)c2)c(N2CCOCC2)c1 | –
267 | CCN1CCN(Cc2ccccc2CNC(=O)c2cccc(NCc3nnc(-c4ccncn4)n3C)c2)CC1 | –
68.9 | CNS(=O)(=O)Cc1ccccc1CNC(=O)c1cccc(NCc2nnc(-c3ccncn3)n2C)c1 | –
289 | CN1CCN(c2ncccc2CNC(=O)c2cccc(NCc3nnc(-c4ccncn4)n3C)c2)CC1 | –
203 | Cn1c(CNc2cccc(C(=O)NCc3ccc(O)nc3)c2)nnc1-c1ccncn1 | –

— patent US20230009608A1, “GRK2 INHIBITORS AND USES THEREOF” (Cygnal Therapeutics, Inc., priority 2020, published 2023)
